# ChEMBL document CHEMBL3994622, “Design and synthesis of new RAF kinase-inhibiting antiproliferative quinoline derivatives. Part 2: Diarylurea derivatives” (Eur J Med Chem, 2017)
# Columns and labels:
# [1] = system: TK-10; assay: Growth inhibition of human TK10 cells incubated for 48 hrs by sulforhodamine B assay; type: functional; conditions: TK-10, 48 h
# [2] = system: SR; assay: Growth inhibition of human SR cells incubated for 48 hrs by sulforhodamine B assay; type: functional
# [3] = system: SNB-19; assay: Growth inhibition of human SNB19 cells incubated for 48 hrs by sulforhodamine B assay; type: functional; conditions: SNB-19, 48 h
# [4] = system: Malme-3M; assay: Growth inhibition of human MALME-3M cells incubated for 48 hrs by sulforhodamine B assay; type: functional
# [5] = system: IGROV-1; assay: Growth inhibition of human IGROV1 cells incubated for 48 hrs by sulforhodamine B assay; type: functional; conditions: IGROV-1, 48 h
# [6] = system: MOLT-4; assay: Growth inhibition of human MOLT4 cells incubated for 48 hrs by sulforhodamine B assay; type: functional; conditions: MOLT-4, 48 h
# [7] = system: SF-295; assay: Growth inhibition of human SF295 cells incubated for 48 hrs by sulforhodamine B assay; type: functional; conditions: SF-295, 48 h
# [8] = system: RXF 393; assay: Growth inhibition of human RXF393 cells incubated for 48 hrs by sulforhodamine B assay; type: functional; conditions: RXF 393, 48 h
# [9] = system: HOP-92; assay: Growth inhibition of human HOP92 cells incubated for 48 hrs by sulforhodamine B assay; type: functional; conditions: HOP-92, 48 h
# [10] = system: CAKI-1; assay: Growth inhibition of human Caki1 cells incubated for 48 hrs by sulforhodamine B assay; type: functional; conditions: CAKI-1, 48 h
# [11] = system: MDA-MB-435; assay: Growth inhibition of human MDA-MB-435 cells incubated for 48 hrs by sulforhodamine B assay; type: functional; conditions: MDA-MB-435, 48 h
# [12] = system: SF-539; assay: Growth inhibition of human SF539 cells incubated for 48 hrs by sulforhodamine B assay; type: functional; conditions: SF-539, 48 h
# [13] = system: NCI/ADR-RES; assay: Growth inhibition of human NCI/ADR-RES cells incubated for 48 hrs by sulforhodamine B assay; type: functional
# [14] = system: RPMI-8226; assay: Growth inhibition of human RPMI8226 cells incubated for 48 hrs by sulforhodamine B assay; type: functional; conditions: RPMI-8226, 48 h
# [15] = system: EKVX; assay: Growth inhibition of human EKVX cells incubated for 48 hrs by sulforhodamine B assay; type: functional
# [16] = molecular target: RAF proto-oncogene serine/threonine-protein kinase (Homo sapiens, UniProt P04049); assay: Inhibition of human c-RAF at 10 uM using MEK1 as substrate in presence of [33P]ATP by Hotspot assay relative to control
# [17] = system: U-251; assay: Growth inhibition of human U251 cells incubated for 48 hrs by sulforhodamine B assay; type: functional; conditions: U-251, 48 h
# [18] = system: MDA-MB-231; assay: Growth inhibition of human MDA-MB-231 cells incubated for 48 hrs by sulforhodamine B assay; type: functional; conditions: MDA-MB-231, 48 h
# [19] = system: OVCAR-5; assay: Growth inhibition of human OVCAR5 cells incubated for 48 hrs by sulforhodamine B assay; type: functional; conditions: OVCAR-5, 48 h
# [20] = system: OVCAR-8; assay: Growth inhibition of human OVCAR8 cells incubated for 48 hrs by sulforhodamine B assay; type: functional; conditions: OVCAR-8, 48 h
# [21] = system: NCI-H460; assay: Growth inhibition of human NCI-H460 cells incubated for 48 hrs by sulforhodamine B assay; type: functional; conditions: NCI-H460, 48 h
# [22] = system: ACHN; assay: Growth inhibition of human ACHN cells incubated for 48 hrs by sulforhodamine B assay; type: functional
# [23] = system: SF-268; assay: Growth inhibition of human SF268 cells incubated for 48 hrs by sulforhodamine B assay; type: functional; conditions: SF-268, 48 h
# [24] = system: MCF7; assay: Growth inhibition of human MCF7 cells incubated for 48 hrs by sulforhodamine B assay; type: functional; conditions: MCF7, 48 h
# [25] = system: KM12; assay: Growth inhibition of human KM12 cells incubated for 48 hrs by sulforhodamine B assay; type: functional; conditions: KM12, 48 h
# [26] = system: COLO 205; assay: Growth inhibition of human COLO205 cells incubated for 48 hrs by sulforhodamine B assay; type: functional; conditions: COLO 205, 48 h
# [27] = system: K562; assay: Growth inhibition of human K562 cells incubated for 48 hrs by sulforhodamine B assay; type: functional; conditions: K562, 48 h
# [28] = system: BT-549; assay: Growth inhibition of human BT549 cells incubated for 48 hrs by sulforhodamine B assay; type: functional; conditions: BT-549, 48 h
# [29] = system: SK-OV-3; assay: Growth inhibition of human SKOV3 cells incubated for 48 hrs by sulforhodamine B assay; type: functional; conditions: SK-OV-3, 48 h
# [30] = system: SN12C; assay: Growth inhibition of human SN12C cells incubated for 48 hrs by sulforhodamine B assay; type: functional
# [31] = system: SNB-75; assay: Growth inhibition of human SNB75 cells incubated for 48 hrs by sulforhodamine B assay; type: functional; conditions: SNB-75, 48 h
# [32] = system: UACC-62; assay: Growth inhibition of human UACC62 cells incubated for 48 hrs by sulforhodamine B assay; type: functional; conditions: UACC-62, 48 h
# [33] = read-out: LC50 (the source's name)
# RAF proto-oncogene serine/threonine-protein kinase, sequence (P04049 whole entry): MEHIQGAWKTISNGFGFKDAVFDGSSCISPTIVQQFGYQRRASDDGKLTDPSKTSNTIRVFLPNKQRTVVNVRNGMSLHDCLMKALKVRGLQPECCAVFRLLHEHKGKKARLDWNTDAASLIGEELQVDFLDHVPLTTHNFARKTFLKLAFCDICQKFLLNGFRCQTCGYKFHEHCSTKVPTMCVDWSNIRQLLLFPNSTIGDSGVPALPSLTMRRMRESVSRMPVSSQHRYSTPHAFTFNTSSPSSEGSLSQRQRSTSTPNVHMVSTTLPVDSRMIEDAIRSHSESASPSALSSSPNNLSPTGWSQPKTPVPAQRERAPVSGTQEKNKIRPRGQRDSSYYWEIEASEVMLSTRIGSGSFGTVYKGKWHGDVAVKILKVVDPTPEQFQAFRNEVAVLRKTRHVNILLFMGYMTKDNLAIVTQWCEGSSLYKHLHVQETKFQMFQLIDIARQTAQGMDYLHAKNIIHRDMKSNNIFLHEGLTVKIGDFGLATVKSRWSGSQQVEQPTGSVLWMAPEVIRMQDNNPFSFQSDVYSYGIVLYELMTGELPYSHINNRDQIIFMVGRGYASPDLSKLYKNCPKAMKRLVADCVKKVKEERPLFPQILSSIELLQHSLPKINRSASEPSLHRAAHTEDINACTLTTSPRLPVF
smiles,measurement,setting,value
COc1cc2cc(Oc3ccc(NC(=O)Nc4cccc(C(F)(F)F)c4)cc3)c(C)nc2cc1OC,GI50,[1],2.26 µM
same,TGI,[1],9.93 µM
same,CC50,[1]; [33],> 50 µM
same,GI50,[2],1.17 µM
same,TGI,[2],3.33 µM
same,CC50,[2]; [33],32 µM
same,GI50,[3],2.19 µM
same,TGI,[3],15 µM
same,CC50,[3]; [33],> 50 µM
same,GI50,[4],1.71 µM
same,TGI,[4],4.9 µM
same,CC50,[4]; [33],33.8 µM
same,GI50,[5],2.95 µM
same,TGI,[5],24.9 µM
same,CC50,[5]; [33],> 50 µM
same,GI50,[6],1.55 µM
same,LC50,[6],> 50 µM
same,TGI,[6],6.87 µM
same,GI50,[7],1.13 µM
same,TGI,[7],3.59 µM
same,CC50,[7]; [33],27.2 µM
same,GI50,[8],1.63 µM
same,TGI,[8],4.97 µM
same,CC50,[8]; [33],26.3 µM
same,GI50,[9],1.26 µM
same,LC50,[9],21.2 µM
same,TGI,[9],3.96 µM
same,GI50,[10],1.32 µM
same,TGI,[10],4.29 µM
same,CC50,[10]; [33],48.6 µM
same,GI50,[11],1.63 µM
same,TGI,[11],10.1 µM
same,CC50,[11]; [33],> 50 µM
same,GI50,[12],2.48 µM
same,TGI,[12],8.74 µM
same,CC50,[12]; [33],25.4 µM
same,GI50,[13],1.71 µM
same,TGI,[13],7.19 µM
same,CC50,[13]; [33],40 µM
same,GI50,[14],1.05 µM
same,"LC50 (lethal concentration, 50% cell kill)",[14],> 50 µM
same,TGI,[14],2.96 µM
same,GI50,[15],1.48 µM
same,LC50 (concentration killing 50% of cells),[15],> 50 µM
same,TGI,[15],6.46 µM
same,inhibition,[16],99.2%
same,GI50,[17],1.56 µM
same,TGI,[17],5.61 µM
same,CC50,[17]; [33],17 µM
same,GI50,[18],1.13 µM
same,TGI,[18],4.15 µM
same,CC50,[18]; [33],18.6 µM
same,GI50,[19],3.02 µM
same,TGI,[19],13 µM
same,CC50,[19]; [33],> 50 µM
same,GI50,[20],1.71 µM
same,TGI,[20],6.28 µM
same,CC50,[20]; [33],19.9 µM
same,GI50,[21],1.6 µM
same,TGI,[21],6.02 µM
same,CC50,[21]; [33],34.9 µM
same,GI50,[22],1.64 µM
same,TGI,[22],7.71 µM
same,CC50,[22]; [33],> 50 µM
same,GI50,[23],2.57 µM
same,LC50 (50% lethal concentration),[23],> 50 µM
same,TGI,[23],15.5 µM
same,GI50,[24],1.34 µM
same,TGI,[24],5.43 µM
same,CC50,[24]; [33],18.9 µM
same,GI50,[25],1.42 µM
same,TGI,[25],5.92 µM
same,CC50,[25]; [33],36.1 µM
same,GI50,[26],1.12 µM
same,TGI,[26],2.4 µM
same,CC50,[26]; [33],5.7 µM
same,GI50,[27],1.73 µM
same,LC50 (concentration killing 50% of cells),[27],> 50 µM
same,TGI,[27],14 µM
same,GI50,[28],1.43 µM
same,TGI,[28],6.18 µM
same,CC50,[28]; [33],28.2 µM
same,GI50,[29],2.06 µM
same,TGI,[29],10.6 µM
same,CC50,[29]; [33],> 50 µM
same,GI50,[30],2.06 µM
same,TGI,[30],16.3 µM
same,CC50,[30]; [33],> 50 µM
same,GI50,[31],1.17 µM
same,TGI,[31],6.18 µM
same,CC50,[31]; [33],> 50 µM
same,GI50,[32],1.84 µM
same,TGI,[32],10.9 µM
same,CC50,[32]; [33],> 50 µM
